Results reported in ChEMBL document CHEMBL1152521, “Synthesis and biological evaluation of radioiodinated 2,5-diphenyl-1,3,4-oxadiazoles for detecting beta-amyloid plaques in the brain” (Bioorg Med Chem, 2009).
The source made the active and inactive calls. No cut-off for these calls is given here.

How the values were obtained:
[1] = Octanol-phosphate buffer partition coefficient, log P at pH 7.4 by gamma counting of radioactivity
Mus musculus = organism: Mus musculus; experiment: Binding affinity to amyloid beta (1-42) in brain of transgenic 2576 mouse Alzheimer's model at 100 uM after 30 mins by thioflavin S staining-based fluorescence microscopic analysis
[2] = Displacement of [125I]IMPY from aggregated amyloid beta (1-42) by gamma counting

COc1ccc(-c2nnc(-c3ccc(I)cc3)o2)cc1
logD [1]: 2.58
Activity (Mus musculus): Active
Ki [2]: 46.1 nM

CN(C)c1ccc(-c2nc(-c3ccc(I)cc3)no2)cc1
logD [1]: 3.22

Oc1ccc(-c2nnc(-c3ccc(I)cc3)o2)cc1
Ki [2]: 230 nM

OCCOCCOCCOc1ccc(-c2nnc(-c3ccc(I)cc3)o2)cc1
Ki [2]: 258 nM

OCCOCCOc1ccc(-c2nnc(-c3ccc(I)cc3)o2)cc1
Ki [2]: 349 nM
